US7144856B2, “Inhibitors of dipeptidyl peptidase I” (Probiodrug AG, priority 2001, dated 2006)
Structures can show the parent of a compound that is named as a salt. Values belong to the molecule of their own block, whether it stands above or below them.

Key:
[1] = target: T1, DP I (Rattus norvegicus, UniProt P80067); settings: background, literature; cited from earlier work
T1 sequence (P80067 with tags, fused parts or gaps): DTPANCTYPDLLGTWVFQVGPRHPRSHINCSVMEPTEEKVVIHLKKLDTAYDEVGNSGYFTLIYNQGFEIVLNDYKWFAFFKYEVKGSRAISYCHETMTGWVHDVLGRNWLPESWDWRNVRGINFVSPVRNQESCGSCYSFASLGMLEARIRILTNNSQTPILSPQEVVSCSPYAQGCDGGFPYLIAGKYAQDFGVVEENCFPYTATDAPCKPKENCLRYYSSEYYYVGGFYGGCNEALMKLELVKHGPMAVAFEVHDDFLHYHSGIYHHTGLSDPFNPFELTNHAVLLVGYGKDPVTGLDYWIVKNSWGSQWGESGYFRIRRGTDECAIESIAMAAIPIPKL

[2] = target: cathepsin L (Homo sapiens, UniProt P07711); experiment: cross-reactivity against cathepsin L, IC50; assay type: biochemical; settings: n.i. = no inhibition; read-out: IC50 Cath. L
Description: (§1) Selected compounds, based on the general formula (II) below, were tested concerning their inhibitory potential against DP I and for their cross-reactivity against three more cysteine proteases, namely cathepsin B, H, L and another dipeptidyl peptidase, dipeptidyl peptidase IV (DP IV).

[3] = target: T2, cathepsin H (Homo sapiens, UniProt P09668); experiment: cross-reactivity against cathepsin H, IC50; assay type: biochemical; settings: n.i. = no inhibition; for IC50: read-out: IC50 Cath. H
T2 sequence (P09668 98-335): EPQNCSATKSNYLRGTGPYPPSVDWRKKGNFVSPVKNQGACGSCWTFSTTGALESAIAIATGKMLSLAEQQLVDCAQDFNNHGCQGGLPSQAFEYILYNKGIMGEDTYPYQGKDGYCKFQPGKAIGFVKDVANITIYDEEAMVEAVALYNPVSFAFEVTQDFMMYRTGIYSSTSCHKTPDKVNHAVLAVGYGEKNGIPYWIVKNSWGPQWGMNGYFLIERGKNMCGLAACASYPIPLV
Description: as §1

[4] = target: cathepsin B (Homo sapiens, UniProt P07858); experiment: cross-reactivity against cathepsin B, IC50; assay type: biochemical; settings: n.i. = no inhibition; read-out: IC50 Cath. B
Description: as §1

[5] = test system: Hep-G2 (human hepatocyte cell line); experiment: cytotoxicity assay, Hep-G2 cells; assay type: cell-based; settings: 24 hours incubation
Description: (§2) The toxicological potential of the compounds provided therein against murine cell lines is different from their toxicological potential against human cell lines. Selected compounds, based on the general formula (II) above, were tested concerning their cytotoxicological potential against the two cell-lines, L-929 (murine fibroblast cell line) and Hep-G2 (human hepatocyte cell line) cells.
(§3) HEP-G2, a human hepatocyte cell line (ACC180) and L-929, a mouse fibroplast cell line (ACC2) were grown in RPMI 1604 with 10% fetal bovine serum and 60 μg/ml gentamycin.
(§4) All cultures were fed every 2–3 days and incubated in an humified chamber at 37° C. and 5% CO2. For determining the cytotoxicity of different DPI-inhibitors, we used the CytoTox96™ Non-radioactive Cytotoxicity Assay (Promega, Madison, Wis., USA). HEP-G2 (30000 cells per well) and L-929 (20000 cells per well) were placed in 96 well plates in RPMI 1604 with 10% fetal bovine serum and grown for 24 hours. The cells were then incubated with various concentrations of different DPI-inhibitors for 24 hours in RPMI 1604 with 10% fetal bovine serum. One hour after addition of MTS-solution, the reaction was stopped by adding stop-solution of Promega. The absorbance was measured at 490 nm with a spectrophotometer. All experiments were performed twice simultaneously in three wells.

[6] = target: dipeptidyl peptidase IV (DP IV) (Homo sapiens, UniProt P27487); experiment: cross-reactivity against dipeptidyl peptidase IV, IC50; assay type: biochemical; settings: n.i. = no inhibition
Description: as §1

[7] = target: T3, DP I (Rattus norvegicus, UniProt P80067); experiment: determination of second order rate constant kinact/Ki for DP I; assay type: biochemical; settings: substrate Gly-Arg-pNA 1 mM and 0.5 mM
T3 construct: purchased Qiagen
Description: For the Ki-value determination a UV-spectrophotometer (Lambda 20, PerkinElmer, Überlingen, Germany) was used. The reaction was monitored via the p-nitroaniline released from the substrate (Gly-Arg-pNA) at λ=390 nm. DP I (1 U/mg, assay condition: Tagzyme handbook, Qiagen, Hilden, Germany) was diluted in MES-buffer (1:1000) and preincubated and activated for 30 min on crashed ice. The reaction mixture consists: 500 μl stock solution MES-buffer, 500 μl HCl*Gly-L-Arg-pNA, 250 μl inhibitor, 50 μl DP I. In order to calculate the second order rate constant (kinact/Ki) two substrate concentrations (1 mM and 0.5 mM in the incubation mixture) were combined with 6 inhibitor concentrations (5*10^−7 M to 3*10^−8 M in the assay). From the product-time-course the observed first order rate constant was determined.
Plotting 1/kobs versus substrate concentration allows the calculation of the real first order rate constant of inactivation for each inhibitor concentration at [S]=0.
Based on this equation Ki and kinact can be determined.

[8] = test system: L-929 (murine fibroblast cell line); experiment: cytotoxicity assay, L-929 cells; assay type: cell-based; settings: 24 hours incubation
Description: as §2, §3, §4

Sequence of cathepsin L (P07711 114-333): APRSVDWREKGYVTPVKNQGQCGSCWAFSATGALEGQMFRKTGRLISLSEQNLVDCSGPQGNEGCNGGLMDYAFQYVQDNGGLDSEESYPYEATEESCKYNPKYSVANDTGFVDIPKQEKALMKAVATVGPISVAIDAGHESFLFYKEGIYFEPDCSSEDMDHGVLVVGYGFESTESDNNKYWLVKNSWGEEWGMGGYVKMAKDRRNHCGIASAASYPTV
Sequence of dipeptidyl peptidase IV (DP IV) (P27487 whole entry, species assumed): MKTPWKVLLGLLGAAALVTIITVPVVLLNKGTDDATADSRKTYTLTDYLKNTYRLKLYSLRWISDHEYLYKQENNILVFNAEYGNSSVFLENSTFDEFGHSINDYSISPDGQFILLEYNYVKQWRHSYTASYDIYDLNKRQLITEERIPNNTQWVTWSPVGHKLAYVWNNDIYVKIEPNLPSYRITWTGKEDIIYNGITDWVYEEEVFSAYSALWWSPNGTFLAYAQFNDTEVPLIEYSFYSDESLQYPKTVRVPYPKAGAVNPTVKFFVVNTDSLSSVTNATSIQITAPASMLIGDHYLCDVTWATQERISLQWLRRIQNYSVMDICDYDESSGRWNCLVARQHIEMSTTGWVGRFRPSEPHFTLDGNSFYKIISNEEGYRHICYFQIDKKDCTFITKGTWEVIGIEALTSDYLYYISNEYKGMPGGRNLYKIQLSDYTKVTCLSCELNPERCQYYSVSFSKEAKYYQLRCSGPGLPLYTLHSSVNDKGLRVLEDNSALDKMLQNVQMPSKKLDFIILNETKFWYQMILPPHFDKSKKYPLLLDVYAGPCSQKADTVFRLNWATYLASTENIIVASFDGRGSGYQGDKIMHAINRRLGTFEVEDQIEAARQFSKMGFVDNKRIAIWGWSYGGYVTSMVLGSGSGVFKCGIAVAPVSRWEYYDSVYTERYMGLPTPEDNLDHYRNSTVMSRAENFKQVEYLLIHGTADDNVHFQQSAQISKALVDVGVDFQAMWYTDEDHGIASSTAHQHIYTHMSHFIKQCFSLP

melting point: 98 to 101 °C
Molecule: Cc1ccc(C(=O)ONC(=O)[C@H](Cc2ccccc2)NC(=O)CN)cc1 (as salt: TFA) [compound 12, TFA*H-Gly-L-Phe-NHO-Bz-p-CH3]

melting point: 69 to 71 °C
Molecule: CNCC(=O)N[C@@H](Cc1ccccc1)C(=O)NOC(=O)c1ccccc1 (as salt: TFA) [compound 14, TFA*H-Sar-L-Phe-NHO-Bz]

Molecule: CC(C)C[C@H](NC(=O)[C@H]1O[C@@H]1C(=O)O)C(=O)NCCCCN=C(N)N [E-64, reference compound]
inhibition of DP I (in words) [1]: weak inhibition

Molecule: CC(=O)ONC(=O)[C@H](Cc1ccccc1)NC(=O)CN [compound 10, TFA*H-Gly-L-Phe-NHO-Ac]
IC50 [2]: 156 µM
IC50 Cath. H [3]: n.i.
IC50 [4]: 117 µM
LD50 Hep-G2 [5]: 1.6 mg/mL
IC50 DP IV [6]: n.i.
kinact/KI [7]: 39000 M⁻¹ s⁻¹
LD50 L-929 [8]: 4.3 mg/mL

Molecule: NCC(=O)N[C@@H](Cc1ccccc1)C(=O)NOC(=O)c1ccccc1 [compound 11, TFA*H-Gly-L-Phe-NHO-Bz]
IC50 [2]: 36.9 µM
IC50 Cath. H [3]: n.i.
IC50 [4]: 37.7 µM
LD50 Hep-G2 [5]: 0.8 mg/mL
IC50 DP IV [6]: n.i.
kinact/KI [7]: 400000 M⁻¹ s⁻¹
LD50 L-929 [8]: 1.0 mg/mL

IC50 [2]: 33.1 µM
IC50 [3]: 154 µM
IC50 [4]: 34 µM
IC50 DP IV [6]: n.i.
kinact/KI [7]: 19000 M⁻¹ s⁻¹
Molecule: Cc1ccc(C(=O)ONC(=O)[C@H](Cc2ccccc2)NC(=O)CN)cc1 [compound 12, TFA*H-Gly-L-Phe-NHO-Bz-p-CH3]

Molecule: NCC(=O)N[C@@H](Cc1ccccc1)C(=O)NOC(=O)c1ccc([N+](=O)[O-])cc1 [compound 13, TFA*H-Gly-L-Phe-NHO-Bz-p-NO2]
IC50 [2]: 7.32 µM
IC50 [3]: 34.7 µM
IC50 [4]: 5.31 µM
LD50 Hep-G2 [5]: 0.8 mg/mL
IC50 DP IV [6]: n.i.
kinact/KI [7]: 79000 M⁻¹ s⁻¹
LD50 L-929 [8]: 2.3 mg/mL

IC50 [2]: 4.61 µM
IC50 [3]: 205 µM
IC50 [4]: 41.8 µM
IC50 DP IV [6]: n.i.
kinact/KI [7]: 140000 M⁻¹ s⁻¹
Molecule: CNCC(=O)N[C@@H](Cc1ccccc1)C(=O)NOC(=O)c1ccccc1 [compound 14, TFA*H-Sar-L-Phe-NHO-Bz]

Molecule: CC(=O)N[C@@H](CC(C)C)C(=O)N[C@@H](CC(C)C)C(=O)N[C@H](C=O)CCCNC(=N)N [leupeptin, reference compound]
inhibition of DP I (in words) [1]: weak inhibition

B1: chicken cystatin (protein, UniProt P01038 24-139, looked up)
Cystatin: SEDRSRLLGAPVPVDENDEGLQRALQFAMAEYNRASNDKYSSRVVRVISAKRQLVSGIKYILQVEIGRTTCPKSSGDLQSCEFHDEPEMAKYTTCTFVVYSIPWLNQIKLLESKCQ
inhibition of DP I (in words) [1]: Stronger reversible inhibitors

B2: stefin A (protein, UniProt P01040 1-98, looked up)
Cystatin-A: MIPGGLSEAKPATPEIQEIVDKVKPQLEEKTNETYGKLEAVQYKTQVVAGTNYYIKVRAGDNKYMHLKVFKSLPGQNEDLVLTGYQVDKNKDDELTGF
inhibition of DP I (in words) [1]: Stronger reversible inhibitors
